Assays:
[1] = tested on: defense-related genes in excised maize leaves; test: Excised leaf bioassay, semi-quantitative RT-PCR of defense marker genes; format: in vivo, Zea mays
Method: Over a 16.5 hour time-course, excised maize leaves were supplied with either a solution of ZmPEP3 peptide or with a water control. Based on the average volume of ZmPEP3 solution taken up by the maize leaves, each leaf was exposed to around 1.8 nMols of peptide per gram of leaf material over the time course study. Zero hour treatments indicate leaves that were immediately harvested at the beginning of the study; the other time points refer to hours elapsed after leaves were excised and placed into solution. As a control to observe herbivory-induced expression of these genes, a timecourse of exposure to herbivory by Spodoptera frugiperda (fall armyworm, FAW) was performed for comparison. As described in the Material and Methods, when using the semi-quantitative RT-PCR analysis technique, observed band intensity is indicative of initial transcript abundance in a sample, thus bands of greater intensity represent sample with enriched transcript abundance.
Maize tissues that had been harvested and frozen in liquid nitrogen were ground to a fine powder using a porcelain mortar and pestle. Approximately 100 mg of frozen powdered plant material was transferred to a 2 mL microcentrifuge tubes to which 1 mL of Trizol reagent (Invitrogen, Carlsbad Calif.) was added. RNA isolation was performed as per the Trizol instructions, supplemented by an acid:phenol:chloroform partitioning step to minimize contaminating DNA. RNA was solublized in 50 μL diethylpyrocarbonate (DEPC)-treated water. RNA yield was quantified by measuring the A260, and the samples were stored at −20° C.
RNA was reverse transcribed using all components from the RETROscript kit (Ambion, Austin Tex.). The 20 μL reverse transcription reactions were assembled as per kit instructions The reverse transcription reaction was allowed to proceed for one hour at 44° C., followed by a ten minute incubation at 92° C.
Semi-quantitative RT-PCR reactions were assembled as follows: 1.2 μL of the cDNA generated in the reverse transcription reactions was used as template for 25 μL PCR reactions. Each reaction contained Platinum 10×PCR buffer (Invitrogen, Carlsbad Calif.) and the final concentration of Mg^2+ and dNTPs were 1.5 mM and 200 μM, respectively. Platinum Taq polymerase (Invitrogen, Carlsbad Calif.) was added at 0.5 units per reaction, while primers were used at 0.4 μM each. All primers were designed to for an annealing temperature of 56° C., to amplify a product of 250 to 350 base pairs and to span introns when possible. The ZmActin1 gene transcript (GenBank# J01238) has been described in the literature as an effective housekeeping control transcript for the study of maize defense gene expression (Erb et al., 2009), and was therefore used to permit comparisons of relative transcript abundance from sample to sample. Genes to be analyzed for responsiveness to ZmPep3 were all shown in previous work to be associated with either pathogen or herbivore resistance (Erb et al., Plant J 59: 292, 2009; Doehlemann et al., Plant J. 56:181, 2008; Köliner et al., Plant Cell 20: 482, 2008; Chen et al., Phytopathology 94:938, 2004; Chen et al., Phytopathology 97:1094, 2007; Schnee et al., Plant Physiol 130: 2049, 2002; Frey et al., Proc Natl Acad Sci USA. 97:14801, 2000).

[2] = tested on: Cotesia marginiventris; test: Olfactometer assay of parasitoid wasp attraction to pretreated leaves; format: in vivo
Excerpt: The generalist parasitoid Cotesia marginiventris attacks many Lepidopteran species including S. exigua and is attracted to herbivory-induced maize volatiles (Turlings et al., Science 250:1251, 1990). Precisely which components are attractive has been difficult to determine, and the wasps respond strongly to unidentified minor components when subjected to gas chromatograph-coupled electroantennography (Gouinguene et al., J Chem Ecol. 31:1023, 2005). To determine whether the ZmPep3-induced blend was attractive to naïve C. marginiventris, olfactometer assays were conducted with leaves pretreated with ZmPep3, Gln-18:3 or water for 16 h. To ensure that any preference was due to elicited plant responses and not to an inherent attraction or repellence to any treatment substance, leaves treated at time of assay were used as controls. […] Thus, ZmPep3-regulated responses are sufficient to generate effective indirect defenses against Lepidopteran herbivores.

[3] = tested on: volatile emission from maize leaves; test: Volatile collection and GC analysis of emitted volatiles from excised maize leaves; format: in vivo, Zea mays
Method: Volatiles were collected by a previously described method (Schmelz et al., Planta. 214:171, 2001). Briefly, excised leaves were placed in glass cylinders (Analytical Research Systems, Gainesville, Fla., USA) and maintained under their original lighting conditions. Clean, humidified air was passed through the cylinders (550 ml/min) and the leaf-emitted volatiles were trapped on 50 mg Super Q (80/100 mesh; Alltech, Deerfield, Ill., USA) for 30 minutes. Super Q traps were eluted with 150 μl methylene chloride with 400 ng of nonyl acetate added as an internal standard. At least three leaf replicates were used for each treatment. Volatiles were analyzed by gas chromatography-mass spectrometry (GC-MS) using an Agilent (Agilent Technologies, Inc., Santa Clara, Calif.) 7890A gas chromatograph (carrier gas; He at 1.2 ml min^−1; splitless injector, temperature 220° C., injection volume 1 μl) with an DB-1MS column (100% Dimethylpolysiloxane; 15 m long, 250 μm i.d., 0.1 μm film thickness). Temperatures were programmed from 40° C. (0.5 min hold) at 12° C. min^−1 to 180° C. then 220° C. (2.0 min hold for the post run). Signals were captured with a flame ionization detector (250° C.). The GC was coupled to an HP 5973 quadrupole-type mass selective detector with transfer line, source, and quadrupole temperatures of 230° C., 230° C. and 150° C., respectively. […] Volatile compounds were identified by comparison of retention times with authentic standards and by comparison of mass spectra with Wiley and NIST libraries.

[4] = later time points, vs water-supplied leaves

For “ZmPEP3: 23 amino acid maize plant elicitor peptide TRTPPWPPCPPEEGSGGNGGSHN (SEQ ID NO: 3) (Zea mays)”, the “number of defense-related genes identified as ZmPEP3-responsive” value ([1]; excised leaf assays) was “twenty”, the “time at which AOS transcript increases in abundance” value ([1]; excised leaves, around 1.8 nMols of peptide per gram of leaf) was 2 h and the “endochitinase A transcript levels” value ([1]; excised leaves, around 1.8 nMols of peptide per gram of leaf, early time points, vs water) was “increased transcript levels at all early time points”. The IGL expression ([1]; later time points) was “strongly induced”, the AOS transcript levels [1, 4] was “markedly increased” and the TPS23 transcript abundance [1, 4] was “increased greatly”. The peroxidase transcript accumulation ([1]; later timepoints, not detectable in water-supplied leaves) was “marked induction of transcript accumulation”, the “wasps attracted to ZmPep3-pretreated vs water-pretreated leaves” value ([2]; 16 h pretreatment) was “more wasps were attracted” and the “wasp preference for leaves pretreated 16 h vs leaves treated at time of assay” value ([2]; naive C. marginiventris) was “strongly preferred”. The “increase in total defense volatile emission compared to water-supplied leaves” value ([3]; 1.8 nMol peptide per gram of leaf material) was 91%, the “volatile profile vs water-supplied leaves” value ([3]; 18 or 180 fMols of peptide per gram of leaf, 30 minutes collection) was “almost the same as leaves supplied with water” and the “lowest concentration with significant increases in defense volatile emission” value ([3]; 30 minutes collection) was 1.8 pMol ZmPEP3 peptide per gram of leaf material. The “profile of volatile compounds emitted in thirty minutes” value ([3]; GC, vs water-supplied leaves) was “Many molecules are detected”, the “difference in terpenes emitted, ZmPep3 versus Gln-18:3” value ([3]; equivalent molar concentrations) was “no significant quantitative difference” and the “indole emission relative to damage alone” value ([3]; in vivo) was “increased above damage alone”. For the same substance, the “spectrum of elicited volatile components compared with S. exigua herbivory” value ([3]; in vivo) was “same spectrum of volatile components”, the “increase in DMNT emission over water-treated leaves” value ([3]; six hour period) was 6 fold and the “increase in alpha-bergamotene emission over water-treated leaves” value ([3]; six hour period) was “over a thousand fold”. For the same substance, the “increase in beta-caryophyllene emission over water-treated leaves” value ([3]; six hour period) was “over 100 fold”, the “increase in beta-farnesene emission over water-treated leaves” value ([3]; six hour period) was “over 900 fold” and the “increase in indole emission over water-treated leaves” value ([3]; six hour period) was “over 100 fold”. For the same substance, the “increase in nerolidol emission over water-treated leaves” value ([3]; six hour period) was 360 fold.
